Source: US10857201B2, “NNIF and nNIF-related peptides and related methods” (UNIVERSITY OF UTAH RESEARCH FOUNDATION, priority 2016, dated 2020)

Legend:
[1] = test system: nuclear chromatin decondensation in PMNs; test: Nuclear decondensation assay in PMA-treated neutrophils; format: cell-based, human; settings: PMA 20 nM; peptides 1 nM, Cl-amidine 10 μM, sivelestat 200 nM
Method: FIG. 7B is a graph depicting nuclear areas that were measured (n=4) using IMAGEJ™ software (mean nuclear pixel area per cell±SEM). Paired Student's t test, *P<0.05, § P=0.057.
FIG. 12A depicts nuclear decondensation (white arrowheads and magnified image) that were assessed as in FIGS. 7A-7E after a 1 hour preincubation in medium alone, with neutrophil elastase (NE) inhibitor sivelestat (SIVL; 200 nM), or with CRISPP or CRISPP-SCR (both 1 nM) followed by treatment with PMA (20 nM) and an additional 1 hour incubation (n=3). Green fluorescence=nuclear DNA, (60× magnification, scale bar=20 μm). Nuclear area was quantified using IMAGEJ™ software (nuclear pixel area per cell±SEM). One way ANOVA with Tukey's post hoc testing; **P<0.01, ***P<0.001.
Nuclear decondensation was identified as described (see Papayannopoulos V, et al., J Cell Biol. 2010; 191 (3):677-91). Five randomly selected high-power visual fields per sample were captured via confocal microscopy and analyzed for nuclear area using the cell-permeable, fluorescent DNA dye SYTO® Green. The nuclear pixel areas of >100 individual cells per high-power field were determined using IMAGEJ™ software (NIH).

[2] = test system: nuclear histone H3 citrullination; test: Histone H3 citrullination in PMA-activated neutrophils (immunocytochemistry); format: cell-based, human; settings: PMA 20 nM, 15 minutes; peptides 1 nM, Cl-amidine 10 μM
Source text: Green fluorescence=citrullinated-histone H3, magenta fluorescence=nuclear DNA (60× magnification; scale bar=20 μm). The right panel depicts Histone H3 citrullination that was quantified using IMAGEJ™ software (mean citrullinated-histone H3 pixel area per cell±SEM) (n=3). One way ANOVA with Tukey's post hoc testing, *P<0.05.
Imaging was accomplished via confocal microscopy using a FV1000 IX81 confocal microscope and FLUOVIEW™ software (OLYMPUS™). Semi-quantitation was accomplished using IMAGEJ™ software (NIH) to determine the average citrullinated histone H3 content per cell.

[3] = test system: NET formation in E. coli peritonitis; test: Mouse model of E. coli peritonitis (in vivo NET formation); settings: for NET formation by peritoneal fluid PMNs / deployment of NETs on the peritoneal surface / number of PMNs in peritoneal fluid: C57BL/6 mice, 3 hours; for NET formation by peritoneal fluid PMNs / deployment of NETs on the peritoneal surface: 10 mg/kg i.p. 1 hour before E. coli i.p.; for number of PMNs in peritoneal fluid: E. coli i.p.; for peritoneal NET formation: Swiss Webster mice infected with E. coli
Source text: FIG. 8A depicts results of peritoneal fluid NET formation (red fluorescence, yellow arrow) assessed by live cell imaging (60× magnification, scale bar=50 μm) and histone H3 release (red dashed line=baseline arbitrarily set at 1). Three mice per group. One way ANOVA with Tukey's post hoc testing, ***P<0.001 for CRISPP and nNIF versus CRISPP-SCR.
FIG. 8B depicts results of NET formation on the surfaces of peritoneal membranes (red fluorescence, yellow arrows) that was quantified by counting the number of NETs that crossed standardized grid lines in […] (60× magnification; scale bar=50 μm) using IMAGEJ™ software. A second experiment yielded a similar pattern. FIGS. 8A and 8B depict C57BL/6 mice that were not pretreated or pretreated with nNIF, CRISPP, or CRISPP-SCR (10 mg/kg i.p.; 1 hour) and were inoculated with E. coli (4.5×10^7 bacteria i.p.). After 3 hours, the animals were sacrificed, and peritoneal fluid (FIG. 8A) and membranes (FIG. 8B) were collected for analysis.
FIG. 8C depicts C57BL/6 mice that were not pretreated (left two bars) or that were pretreated with CRISPP, nNIF, or CRISPP-SCR, and that were inoculated with E. coli i.p. as in FIGS. 8A and 8B. Neutrophil numbers in peritoneal fluid were counted after 3 hours (3-5 mice/group). […]
FIG. 8E depicts peritoneal fluid NET formation, imaged and measured as in FIG. 8A (10 mice/group). *P<0.05 for CRISPP/E. coli and nNIF/E. coli compared to CRISPP-SCR/E. coli and E. coli.
FIG. 8F depicts NET formation on peritoneal membrane surfaces, imaged and quantitated as in FIG. 8B (3 mice in each group). *P<0.05 for E. coli versus control (red dashed line); **P<0.01 for CRISPP-SCR/E. coli versus control; †P<0.05 for CRISPP/E. coli and nNIF/E. coli versus CRISPP-SCR/E. coli. One way ANOVA with Tukey's post-hoc testing applied in FIGS. 8E and 8F. In FIGS. 8E and 8F, Swiss-Webster mice that were not pretreated or that were pretreated with nNIF, CRISPP, or CRISPP-SCR were inoculated with E. coli i.p. as in FIGS. 8A and 8B. After 3 hours, peritoneal fluid and membranes were collected. FIGS. 8A-8F indicate that nNIF and CRISPP inhibit in vivo NET formation.
C57/BL6 or Swiss-Webster mice were pretreated in blinded fashion with CRISPP (10 mg/kg), nNIF (10 mg/kg), or CRISPP-SCR (10 mg/kg) by i.p. injection 1 hour prior to infection (E. coli, 4.5×10^7 cfu/mouse, i.p.) or inoculation (LPS, 25 mg/kg, i.p.) (SIGMA-ALDRICH®). Control mice were injected with saline alone. The mice were sacrificed in a CO2 chamber 3 hours post-infection/inoculation, and the peritoneal fluid and membrane samples were harvested. Briefly, the abdomen was disinfected and opened in the midline without injuring the muscle. The peritoneal cavity was lavaged with sterile saline solution (1 mL) and analyzed for in vivo NET formation, bacteriology, and leukocyte accumulation. NETs in the peritoneal fluid were qualitatively and quantitatively analyzed using live cell imaging with confocal microscopy and NET-associated histone H3 release assays. NETs on the serosal surface of the peritoneal membrane were assessed quantitatively using live cell imaging, followed by standardized grid analysis of five randomly selected high-power visual fields per tissue sample (IMAGEJ™ software, NIH). Peritoneal bacterial colony forming unit (cfu) counts were quantified by permeabilizing all recovered leukocytes with 0.1% Triton X-100 for 10 minutes and performing serial dilutions and bacterial cultures on 5% sheep blood agar plates (HARDY DIAGNOSTICS™). After a 24-hour incubation, bacterial counts were determined. Total leukocyte counts in the peritoneal lavage were determined in Neubauer chambers using an optical microscope after dilution in Turk's solution (2% acetic acid). Differential leukocyte analysis was performed using a 60× oil immersion objective to assess morphology of cyto-centrifuged cells stained with May-Gruenwald-Giemsa dye. All mice were included in the final analysis.

Substance	nuclear decondensation (number of decondensed nuclei) [1]	nuclear histone H3 citrullination [2]	NET formation by peritoneal fluid PMNs [3]	deployment of NETs on the peritoneal surface [3]	number of PMNs in peritoneal fluid [3]	peritoneal NET formation [3]
KFNKPFVFLMIEQNTKSPLFMGKVVNPTQ (listed as Homo sapiens) [nNIF]	dramatically reduced	inhibited	inhibited	inhibited	trend was to greater numbers	inhibited
M_IPPEVKFNKPFVFLMIDQNTKVPLFMGK [CRISPP, consensus peptide based on factors present in the blood of patients with cancer]	dramatically reduced	inhibited	inhibited	inhibited	greater	inhibited
